For this experiment, the target named is T1, Recombinant human oxytocin receptors (Homo sapiens, UniProt P30559).
T1 construct: expressed in transfected cells; host or cells: CHO cells
T1 sequence (P30559 1-389): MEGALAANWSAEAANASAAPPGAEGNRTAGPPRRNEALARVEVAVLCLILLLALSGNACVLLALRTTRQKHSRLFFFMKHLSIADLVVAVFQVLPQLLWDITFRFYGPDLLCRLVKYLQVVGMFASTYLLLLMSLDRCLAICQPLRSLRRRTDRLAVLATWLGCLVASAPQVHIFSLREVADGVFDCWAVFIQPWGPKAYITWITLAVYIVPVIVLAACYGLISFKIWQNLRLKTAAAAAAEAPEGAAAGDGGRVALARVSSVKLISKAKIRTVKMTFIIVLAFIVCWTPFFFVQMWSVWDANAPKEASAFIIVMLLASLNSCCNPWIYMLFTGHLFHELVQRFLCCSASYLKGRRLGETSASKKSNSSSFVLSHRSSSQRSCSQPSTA
Put plainly: Oxytocin receptor binding assay, [125I]-oxytocin, membrane fraction of CHO cells. As to conditions: receptors expressed in CHO cells; [125I]-oxytocin displacement; read-out: inhibition constant Ki. The procedure: Recombinant human oxytocin receptors were expressed in CHO cells using standard molecular biological techniques. A membrane fraction was prepared and incubated in the presence of [^125I]-oxytocin and varying concentrations of equivalent heptapeptide analogue. Membranes were then isolated by filtration and counted for radioactivity to determine oxytocin binding. An inhibition constant Ki was determined for the analogue.

By Ki is commonly meant the equilibrium dissociation constant of an inhibitor or competing ligand from its target. On to `CC[C@@H](C)[C@@H]1NC(=O)[C@H]([C@@H](C)CC)NC(=O)[C@@H](Cc2c[nH]c3ccccc23)NC(=O)CCSCC[C@@H](C(=O)N(C)[C@H](CO)CCCN)NC(=O)[C@H](CC(N)=O)NC1=O` [IV], for which the Ki came out at 0.1 nM.

Source of the values: patent publication US7816489B2, “Methods for making intermediates and oxytocin analogues” (Ferring B.V., priority 2002, dated 2010).
